US6603023B2 (priority 1996, dated 2003)
“And” between values parts separate entries of the source, which are not always exact repeats. Equal values may be shown once. Read-outs that look alike come from different tables or passages of the source. Marks after values point to notes of the source that are not given here.

Assays:
[1] = test system: A549 Human Lung Carcinoma; test: A549 xenograft; format: in vivo, nude mice; conditions: for Average Tumor Size, Day 11: control 96; for Average Tumor Size, Day 15: control 306; for Average Tumor Size, Day 17: control 553; for Average Body Weight, Day 7: initial weight
[2] = test system: human mammary carcinoma MX-1 xenograft
Procedure: DMSO was used as a vehicle for epothilones. Each mouse received ≦40 μL DMSO in all experiments.
Athymic nude mice (nu/nu) were used for MX-1 and MCF-7/Adr human mammary carcinoma xenografts. Mice were obtained from Taconic Laboratory Animals and Service (Germantown, N.Y.: outbred, Swiss background).

[3] = A549 Lung, dEpoB 40 mg/kg Q2D x 3, Taxol 15 mg/kg Q2D x 3
[4] = Q2D x 3, 6 hr i.v. infusion: dEpoB 40, Taxol 24 mg/kg
[5] = Q2D x 3: dEpoB 30 mg/kg 18 hr i.v. infusion, Taxol 15 mg/kg 6 hr infusion, VBL 2 and VP-16 25 mg/kg i.v. inj
[6] = dEpoB 50 mg/kg Q2D x 3, 6 hr i.v. infusion
[7] = 15 mg/kg i.p. Q2Dx5 from day 7, day 11
[8] = 15 mg/kg i.p. Q2Dx5 from day 7, day 13
[9] = 15 mg/kg i.p. Q2Dx5 from day 7, day 15
[10] = 15 mg/kg i.p. Q2Dx5 from day 7, day 17
[11] = 25 mg/kg i.p. Q2Dx5 from day 7, day 11
[12] = 25 mg/kg i.p. Q2Dx5 from day 7, day 13
[13] = 25 mg/kg i.p. Q2Dx5 from day 7, day 15
[14] = 25 mg/kg i.p. Q2Dx5 from day 7, day 17
[15] = 35 mg/kg i.p. Q2Dx5 from day 9, day 13
[16] = 35 mg/kg i.p. Q2Dx5 from day 9, day 15
[17] = 35 mg/kg i.p. Q2Dx5 from day 9, day 17
[18] = 35 mg/kg i.p. Q2Dx5 from day 9, day 19
[19] = 35 mg/kg i.p. d8,10,12,14,16, day 10
[20] = 35 mg/kg i.p. d8,10,12,14,16, day 12

## C/C1=C/C[C@@H](/C(C)=C/c2csc(C)n2)OC(=O)C[C@H](O)C(C)(C)C(=O)[C@H](C)[C@@H](O)[C@@H](C)CCC1 [Desoxyepothilone B, desoxyepothilone B]
[1]; A549, i.v. infusion
  Therapeutic effect Rank Order: Taxol ®, dEpoB, VBL > VP-16
[1]; [3]
  Lowest Average Tumor Size (T/C): 0.01 T/C
  Tumor Disappearance: 1/3
[1]; A549 Lung, dEpoB 40 mg/kg Q2D x 3 vs Taxol 15 mg/kg Q2D x 3
  Therapeutic Effects dEpoB vs Taxol: ≅
[1]; [4]
  Average Body Weight (change), Day 11: -1.6 g
  Average Body Weight (change), Day 13: -3.2 g
  Average Body Weight (change), Day 15: -2.4 g
  Tumor Disappearance: 1/3
  Average Tumor Size, Day 11: 31 mm^3
  Average Tumor Size, Day 15: 4 mm^3
  Average Tumor Size, Day 17: 4 mm^3
  Average Body Weight, Day 7: 27.8 g
[1]; [5]
  Average Body Weight (change), Day 11: -2.0 g
  Average Body Weight (change), Day 13: -5.8 g
  Average Body Weight (change), Day 15: -5.6 g
  Tumor Disappearance: 1/3
  Average Tumor Size, Day 11: 17 mm^3
  Average Tumor Size, Day 15: 26 mm^3
  Average Tumor Size, Day 17: 21 mm^3
  Average Body Weight, Day 7: 29.3 g
[1]; [6]
  Average Body Weight (change), Day 11: -2.0 g
  Average Body Weight (change), Day 13: -3.2 g
  Average Body Weight (change), Day 15: -2.5 g
  Tumor Disappearance: 1/2
  Average Tumor Size, Day 11: 33 mm^3
  Average Tumor Size, Day 15: 6 mm^3
  Average Tumor Size, Day 17: 6 mm^3
  Average Body Weight, Day 7: 27.1 g
[1]; dEpoB 50 mg/kg Q2D x 3, 6 hr i.v. infusion, control 128
  Average Tumor Size, Day 13: 19 mm^3
[1]; mouse, in vivo
  Average Tumor Size, Day 13: 21 mm^3 and 19 mm^3
[2]; 15 mg/kg i.p. Q2Dx5 from day 7
  Toxicity Death: 0/6
[2]; [7]
  Average Body Weight Change: +0.8 g
  Average Tumor Size (T/C): 0.65
[2]; [8]
  Average Body Weight Change: +1.1 g
  Average Tumor Size (T/C): 0.46
[2]; [9]
  Average Body Weight Change: +1.6 g
  Average Tumor Size (T/C): 0.49**
[2]; [10]
  Average Body Weight Change: +1.5 g
  Average Tumor Size (T/C): 0.41**
[2]; 25 mg/kg i.p. Q2Dx5 from day 7
  Toxicity Death: 0/6
[2]; [11]
  Average Body Weight Change: +0.4 g
  Average Tumor Size (T/C): 0.38*
[2]; [12]
  Average Body Weight Change: +0.7 g
  Average Tumor Size (T/C): 0.11**
[2]; [13]
  Average Body Weight Change: +1.0 g
  Average Tumor Size (T/C): 0.05***
[2]; [14]
  Average Body Weight Change: +0.7 g
  Average Tumor Size (T/C): 0.04****
[2]; 25 mg/kg i.p. days 7-15
  mice tumor-free (no detectable tumor) on day 35: one out of six
[2]; 25 mg/kg i.p. days 7-15, day 17
  average tumor volume reduction: ≤ 96%
[2]; 25 mg/kg i.p. days 7-15, listed as dEpo B
  mice tumor-free (no detectable tumor) on day 35: #One out of six mice with no detectable tumor on day 35;
[2]; 35 mg/kg Q2Dx5 i.p. from day 8
  mice with no detectable tumor on day 16: two out of ten
[2]; 35 mg/kg d8-16 then 40 mg/kg Q2Dx5 from day 18
  mice with no detectable tumor on day 26: five out of ten
[2]; 35 mg/kg d8-16 then 40 mg/kg Q2Dx5 from day 18, of ten
  mice remaining tumor-free on day 60: three
[2]; 35 mg/kg d8-16 then 40 mg/kg d18-26 i.p.
  mice tumor-free up to day 80: 3/10
[2]; 35 mg/kg d8-16 then 40 mg/kg d18-26 i.p., sacrificed day 50
  mice with markedly suppressed tumors: 7/10
[2]; 35 mg/kg i.p. Q2Dx5 from day 8
  lethality: 0/10
  mice survived: 10/10
  mice with tumor non-detectable on day 18: 3 out of 10
  tumor volume reduction: 98%
[2]; 35 mg/kg i.p. Q2Dx5 from day 9
  Toxicity Death: 0/6
  Tumor Disapp.: 3/6
[2]; [15]
  Average Body Weight Change: -1.7 g
  Average Tumor Size (T/C): 0.35
[2]; [16]
  Average Body Weight Change: -2.1 g
  Average Tumor Size (T/C): 0.14
[2]; [17]
  Average Body Weight Change: -2.1 g
  Average Tumor Size (T/C): 0.04
[2]; [18]
  Average Body Weight Change: -2.4 g
  Average Tumor Size (T/C): 0.02
[2]; 35 mg/kg i.p. d8,10,12,14,16
  # Mice Died: 3/10
  Tumor Disappearance: 0/10
[2]; [19]
  Average Body Weight Change: -0.1 g
  Average Tumor Volume (T/C): 0.42
[2]; [20]
  Average Body Weight Change: +0.7 g
  Average Tumor Volume (T/C): 0.28
